Data published in US9522907B2, “Anticancer agent and process for the preparation thereof” (COUNCIL OF SCIENTIFIC & INDUSTRIAL RESEARCH, priority 2014, dated 2016).

Assays:
UACC-62 = experiment: NCI in vitro cytotoxicity, UACC-62; conditions: Homo sapiens
Description: (§1) For these compounds results are expressed as growth inhibition (GI50) values as per NCI protocol.

UO-31 = experiment: NCI in vitro cytotoxicity, UO-31; conditions: Homo sapiens
Description: as §1

LOX IMVI = experiment: NCI in vitro cytotoxicity, LOX IMVI; conditions: Homo sapiens
Description: as §1

SK-MEL-28 = experiment: NCI in vitro cytotoxicity, SK-MEL-28; conditions: Homo sapiens
Description: as §1

KM12 = experiment: NCI in vitro cytotoxicity, KM12; conditions: Homo sapiens
Description: as §1

MOLT-4 = experiment: NCI in vitro cytotoxicity, MOLT-4; conditions: Homo sapiens
Description: as §1

M14 = experiment: NCI in vitro cytotoxicity, M14; conditions: Homo sapiens
Description: as §1

NCI-H522 = experiment: NCI in vitro cytotoxicity, NCI-H522; conditions: Homo sapiens
Description: as §1

MCF-7 = experiment: NCI in vitro cytotoxicity, MCF-7; conditions: Homo sapiens, MCF7
Description: as §1

TK-10 = experiment: NCI in vitro cytotoxicity, TK-10; conditions: Homo sapiens
Description: as §1

HL-60 (TB) = experiment: NCI in vitro cytotoxicity, HL-60 (TB); format: cell-based; conditions: Homo sapiens, Leukemia
PC-3 = experiment: NCI in vitro cytotoxicity, PC-3; conditions: Homo sapiens
Description: as §1

OVCAR-8 = experiment: NCI in vitro cytotoxicity, OVCAR-8; conditions: Homo sapiens
Description: as §1

HCT-116 = experiment: NCI in vitro cytotoxicity, HCT-116; conditions: Homo sapiens
Description: as §1

SNB-75 = experiment: NCI in vitro cytotoxicity, SNB-75; conditions: Homo sapiens
Description: as §1

HCT-15 = experiment: NCI in vitro cytotoxicity, HCT-15; conditions: Homo sapiens
Description: as §1

RPMI-8226 = experiment: NCI in vitro cytotoxicity, RPMI-8226; conditions: Homo sapiens
Description: as §1

IGROV 1 = experiment: NCI in vitro cytotoxicity, IGROV 1; conditions: Homo sapiens
Description: as §1

MDA-MB-231/ATCC = experiment: NCI in vitro cytotoxicity, MDA-MB-231/ATCC; conditions: Homo sapiens
Description: as §1

HCC-2998 = experiment: NCI in vitro cytotoxicity, HCC-2998; conditions: Homo sapiens
Description: as §1

NCI-H23 = experiment: NCI in vitro cytotoxicity, NCI-H23; conditions: Homo sapiens
Description: as §1

SN 12C = experiment: NCI in vitro cytotoxicity, SN 12C; conditions: Homo sapiens, SN12C
Description: as §1

SF-295 = experiment: NCI in vitro cytotoxicity, SF-295; conditions: Homo sapiens
Description: as §1

U251 = experiment: NCI in vitro cytotoxicity, U251; conditions: Homo sapiens, U-251
Description: as §1

SF-268 = experiment: NCI in vitro cytotoxicity, SF-268; conditions: Homo sapiens
Description: as §1

HS 578T = experiment: NCI in vitro cytotoxicity, HS 578T; conditions: Homo sapiens
Description: as §1

A498 = experiment: NCI in vitro cytotoxicity, A498; conditions: Homo sapiens
Description: as §1

SK-MEL-5 = experiment: NCI in vitro cytotoxicity, SK-MEL-5; conditions: Homo sapiens
Description: as §1

ACHN = experiment: NCI in vitro cytotoxicity, ACHN; conditions: Homo sapiens
Description: as §1

NCI/ADR-RES = experiment: NCI in vitro cytotoxicity, NCI/ADR-RES; conditions: Homo sapiens
Description: as §1

DU-145 = experiment: NCI in vitro cytotoxicity, DU-145; conditions: Homo sapiens
Description: as §1

HT29 = experiment: NCI in vitro cytotoxicity, HT29; conditions: Homo sapiens, HT-29
Description: as §1

CCRF-CEM = experiment: NCI in vitro cytotoxicity, CCRF-CEM; conditions: Homo sapiens
Description: as §1

SK-MEL-2 = experiment: NCI in vitro cytotoxicity, SK-MEL-2; conditions: Homo sapiens
Description: as §1

OVCAR-4 = experiment: NCI in vitro cytotoxicity, OVCAR-4; conditions: Homo sapiens
Description: as §1

T-47D = experiment: NCI in vitro cytotoxicity, T-47D; conditions: Homo sapiens, T47D
Description: as §1

SW-620 = experiment: NCI in vitro cytotoxicity, SW-620; conditions: Homo sapiens
Description: as §1

HOP-62 = experiment: NCI in vitro cytotoxicity, HOP-62; conditions: Homo sapiens
Description: as §1

MALME-3M = experiment: NCI in vitro cytotoxicity, MALME-3M; conditions: Homo sapiens
Description: as §1

SK-OV-3 = experiment: NCI in vitro cytotoxicity, SK-OV-3; conditions: Homo sapiens
Description: as §1

A549/ATCC = experiment: NCI in vitro cytotoxicity, A549/ATCC; conditions: Homo sapiens
Description: as §1

NCI-H226 = experiment: NCI in vitro cytotoxicity, NCI-H226; conditions: Homo sapiens
Description: as §1

SNB-19 = experiment: NCI in vitro cytotoxicity, SNB-19; conditions: Homo sapiens
Description: as §1

COc1cc(-c2nc(-c3ccc(-c4nc5cc(F)ccc5[nH]4)cc3)no2)cc(OC)c1OC [2i, 3-(4-(5-Fluoro-1H-benzo[d]imidazol-2-yl)phenyl)-5-(3,4,5-trimethoxyphenyl)-1,2,4-oxadiazole]
GI50 (UACC-62): 2.35 µM | GI50 (UO-31): 2.51 µM | GI50 (LOX IMVI): 1.65 µM | GI50 (SK-MEL-28): 3.78 µM | GI50 (KM12): 3.08 µM | GI50 (MOLT-4): 1.99 µM | GI50 (M14): 3.23 µM | GI50 (NCI-H522): 3.04 µM | GI50 (MCF-7): 2.88 µM | GI50 (TK-10): 8.27 µM | GI50 (HL-60 (TB)): 2.24 µM | GI50 (PC-3): 2.33 µM | GI50 (OVCAR-8): 2.36 µM | GI50 (HCT-116): 2.13 µM | GI50 (SNB-75): 7.74 µM | GI50 (HCT-15): 3.15 µM | GI50 (RPMI-8226): 1.94 µM | GI50 (IGROV 1): 3.81 µM | GI50 (MDA-MB-231/ATCC): 2.39 µM | GI50 (HCC-2998): 6.13 µM | GI50 (NCI-H23): 2.5 µM | GI50 (SN 12C): 3.59 µM | GI50 (SF-295): 2.31 µM | GI50 (U251): 3.03 µM | GI50 (SF-268): 3.99 µM | GI50 (HS 578T): 2.27 µM | GI50 (A498): 4.19 µM | GI50 (SK-MEL-5): 2.22 µM | GI50 (ACHN): 3.72 µM | GI50 (NCI/ADR-RES): 2.49 µM | GI50 (DU-145): 3.96 µM | GI50 (HT29): 3.69 µM | GI50 (CCRF-CEM): 2.97 µM | GI50 (SK-MEL-2): 4.21 µM | GI50 (OVCAR-4): 2.82 µM | GI50 (T-47D): 2.72 µM | GI50 (SW-620): 3.61 µM | GI50 (HOP-62): 3.21 µM | GI50 (MALME-3M): 2.32 µM | GI50 (SK-OV-3): 4.12 µM | GI50 (A549/ATCC): 3.42 µM | GI50 (NCI-H226): 2.72 µM | GI50 (SNB-19): 5.62 µM

COc1ccc2[nH]c(-c3ccc(-c4noc(-c5cc(OC)c(OC)c(OC)c5)n4)cc3)nc2c1 [5i, 3-(4-(5-Methoxy-1H-benzo[d]imidazol-2-yl)phenyl)-5-(3,4,5-trimethoxyphenyl)-1,2,4-oxadiazole]
GI50 (UACC-62): 14 µM | GI50 (UO-31): 1.89 µM | GI50 (LOX IMVI): 13.3 µM | GI50 (SK-MEL-28): 9.59 µM | GI50 (KM12): 7.52 µM | GI50 (MOLT-4): 5.29 µM | GI50 (M14): 5.47 µM | GI50 (NCI-H522): 6.89 µM | GI50 (MCF-7): 1.08 µM | GI50 (TK-10): 4.62 µM | GI50 (HL-60 (TB)): 2.02 µM | GI50 (PC-3): 240 µM | GI50 (OVCAR-8): 4.93 µM | GI50 (HCT-116): 1.9 µM | GI50 (SNB-75): 12.5 µM | GI50 (HCT-15): 1.49 µM | GI50 (RPMI-8226): 6.02 µM | GI50 (IGROV 1): 26.3 µM | GI50 (MDA-MB-231/ATCC): 2.65 µM | GI50 (HCC-2998): 35.5 µM | GI50 (NCI-H23): 4.1 µM | GI50 (SN 12C): 13.2 µM | GI50 (SF-295): 15 µM | GI50 (U251): 1.68 µM | GI50 (SF-268): 7.13 µM | GI50 (HS 578T): 9.49 µM | GI50 (A498): 28.5 µM | GI50 (SK-MEL-5): 3.25 µM | GI50 (ACHN): 28.2 µM | GI50 (NCI/ADR-RES): 3.32 µM | GI50 (DU-145): 9.48 µM | GI50 (HT29): 2.7 µM | GI50 (CCRF-CEM): 2.2 µM | GI50 (SK-MEL-2): 18.9 µM | GI50 (OVCAR-4): 1.88 µM | GI50 (T-47D): 14.7 µM | GI50 (SW-620): 5.89 µM | GI50 (HOP-62): 4.44 µM | GI50 (MALME-3M): 1.67 µM | GI50 (SK-OV-3): 25.3 µM | GI50 (A549/ATCC): 5.65 µM | GI50 (NCI-H226): 2.27 µM | GI50 (SNB-19): 1.27 µM
